The text below walks through data of US20200123555A1, “USE OF MALONYLTRANSFERASE GENE” (Suntory Holdings Limited, priority 2017, published 2020).

Experiment [1] relates to Dm3MaT3. As to the kind of experiment: Enzyme activity, His-tag purified Dm3MaT3 protein solution. Type of experiment: biochemical, chrysanthemum. The note with it: 10 μg Dm3MaT3 protein, 5 μl of 500 μg/ml substrate, malonyl-CoA, 20 minutes at 30° C., pH 7.0. On the procedure: The Escherichia coli strain BL21 introduced with pET32a-Dm3MaT3 described in Example 1 was cultured using the Overnight Express Autoinduction System 1 (Novagen) in accordance with the protocol recommended by the manufacturer. The transformed Escherichia coli was cultured at 37° C. in 8 ml of prepared culture broth until the OD600 value reached 0.5 (approximately 4 hours). This Escherichia coli broth was used as pre-culture broth and added to 200 ml of culture broth followed by culturing overnight at 25° C.
After culturing overnight, the Escherichia coli broth was centrifuged (1000×g, 4° C., 10 minutes) and the harvested bacterial cells were suspended in 20 ml of extraction buffer (composition: 300 mM KCl, 50 mM KH2PO4, 5 mM imidazole (pH 8.0), 10 μM amidinophenylmethanesulfonyl fluoride hydrochloride (APMSF)) followed by disrupting the Escherichia coli by ultrasonication, centrifuging (1400×g, 4° C., 20 minutes) and recovering the supernatant. The supernatant was passed through a 0.45 μm and subjected to His-Tagged purification using Profinia (Bio-Rad) in accordance with the protocol recommended by the manufacturer. The resulting purified protein solution was centrifuged (7500×g, 4° C., 15 minutes) using Centrifugal Filters (Ultracel-10K, Amicon Ultra) and the concentrated protein solution was used as “Dm3MaT3 protein solution”. The Avanti HP-26XP (rotor: JA-2) (Beckman Coulter) was used for centrifugation.
A reaction solution, obtained by mixing 30 μl of Dm3MaT3 protein solution (10 μg), 5 μl of 1 mg/ml malonyl-CoA, 5 μl of 1 M KPB (pH 7.0), 5 μl of 500 μg/ml luteolin 7-glucoside (dissolved in a 50% aqueous acetonitrile solution containing 0.1% TFA) and adjusting to a volume of 100 μl with water on ice, was held for 20 minutes at 30° C. Subsequently, 100 μl of stop buffer (90% aqueous acetonitrile solution containing 0.1% TFA) were added to stop the reaction followed by analyzing the reaction solution by high-performance liquid chromatography (Prominence, Shimadzu Corp.). Flavone was detected at 330 nm using the Shimadzu PDA SPD-M20A for the detector. […]

Experiment [2] relates to Dm3MaT3. In words: Malonyl transfer activity of flower petal crude enzyme solution from genetically engineered rose introduced with Dm3MaT3 gene. Type of experiment: biochemical. Conditions: 2.5 μl of 1 mM apigenin, malonyl-CoA, 20 minutes at 30° C.; genetically engineered rose petals. An excerpt:
In order to confirm that the Dm3MaT3 gene of the present invention encodes a protein having activity that transfers a malonyl group to position 6 of the glucose at position 7 of flavone 7-glucoside in plants, a binary vector pSPB7136 was constructed to express Dm3MaT3 in plants (see FIG. 8) and subsequently introduced into a rose (variety: Ocean Song). pBINPLUS (Van Engel et al., Transgenic Research 4, 288) was used for the basic skeleton, E1235S promoter (Mitsuhara et al., (1996) Plant Cell Physiol., 37, p. 49) was used for the promoter expressing Dm3MaT3 gene, and HSP terminator (Plant Cell Physiol. (2010) 51, 328-332) was used for the terminator in pSPB7136.
A crude enzyme solution was prepared from the petals of a rose strain in which was synthesized the transcription product of full-length cDNA Dm3MaT3 followed by an evaluation of the presence or absence of activity transferring a malonyl group to position 6 of the glucose at position 7 of flavone 7-glucoside. […]
A reaction solution, obtained by mixing 20 μl of the flower petal crude enzyme solution, 5 μl of 1 mg/ml malonyl-CoA, 5 μl of 1 M KPB (pH 7.0) and 2.5 μl of 1 mM apigenin (dissolved in 50% aqueous acetonitrile solution containing 0.1% TFA) and adjusting to a volume of 100 μl with water on ice, was held for 20 minutes at 30° C. […] Flavone was detected at 330 nm using the Shimadzu PDA SPD-M20A for the detector. […]

Experiment [3] has as its system Dm3MaT3. As to the kind of experiment: Enzyme activity, protein solution crudely extracted from Escherichia coli expressing Dm3MaT3. The note with it: substrate with malonyl-CoA. The experiment is classed as biochemical, chrysanthemum. How it is done: The Shim-Pack ODS 150 mm×4.6 mm column (Shimadzu Corp.) was used for the column. […] The flow rate was 0.6 ml/min.

The test system of the next experiment is Dm3MaT1. As to the kind of experiment: Enzyme activity, protein solution crudely extracted from Escherichia coli expressing Dm3MaT1. Type of experiment: biochemical, chrysanthemum. The note with it: substrate with malonyl-CoA, 20 minutes at 30° C., pH 7.0, detection 330 nm.
In a further experiment the test system is Dm3MaT2. As to the kind of experiment: Enzyme activity, protein solution crudely extracted from Escherichia coli expressing Dm3MaT2. Conditions: substrate with malonyl-CoA, 20 minutes at 30° C., pH 7.0, detection 330 nm. Type of experiment: biochemical, chrysanthemum.

`O=c1cc(-c2ccc(O)cc2)oc2cc(O[C@@H]3O[C@H](CO)[C@@H](O)[C@H](O)[C@H]3O)cc(O)c12` [apigenin 7-glucoside]: in the experiment with Dm3MaT3 [1], the “reaction rate (percentage of substrate converted)” value is recorded as 85.80%.

On to `O=c1cc(-c2ccc(O)cc2)oc2cc(O)cc(O)c12` [apigenin], for which, in the experiment with Dm3MaT3 [2], the “peak corresponding to 7-malonylglucoside, share of the apigenin compounds in the enzyme reaction solution” value is 2.04%. On to `OC[C@H]1O[C@@H](Oc2cc3c(O)cc(O)cc3[o+]c2-c2ccc(O)c(O)c2)[C@H](O)[C@@H](O)[C@@H]1O` [cyanidin 3-glucoside], for which, in the experiment on Dm3MaT3 [3] (detection 520 nm), the “amount of cyanidin 3-glucoside consumed in comparison with Dm3MaT1” value is reported as “clearly less” and the “peak corresponding to cyanidin 3-malonylglucoside (HPLC)” value was “detected”.

As to `O=c1cc(-c2ccc(O[C@@H]3O[C@H](CO)[C@@H](O)[C@H](O)[C@H]3O)c(O)c2)oc2cc(O)cc(O)c12` [luteolin 4′-glucoside], the “reaction rate (percentage of substrate converted)” value with Dm3MaT3 [1] is on record as 34.81%. For `O=c1cc(-c2ccc(O)c(O)c2)oc2cc(O[C@@H]3O[C@H](CO)[C@@H](O)[C@H](O)[C@H]3O)cc(O)c12` [luteolin 7-glucoside], the “peak corresponding to luteolin 7-malonylglucoside (HPLC)” value with Dm3MaT1 was “not detected”; in the experiment with Dm3MaT3 [3] (20 minutes at 30° C., pH 7.0, detection 330 nm), “detected”; in the experiment on Dm3MaT2, “not detected”. In the experiment on Dm3MaT3 [1], the “reaction rate (percentage of substrate converted)” value was found to be 81.13%.
